# Results taken from patent US20140199327A1, “METHODS OF PROMOTING DIFFERENTIATION” (Genentech, Inc., priority 2011, published 2014).
# What was measured:
# USP1 = assay: In vitro deubiquitination assay; type: biochemical, human; conditions: purified USP1 and ubiquitinated ID2 from 293T cells
# Description: 293T cells were transfected with USP1-Flag, USP1-[…]-Flag or ID2-Flag and HA-ubiquitin in separate batches. Ubiquitinated ID2-Flag was immunoprecipitated as described above from SDS-boiled lysates. USP1 and USP1 […] were immunoprecipitated with Flag M2-agarose beads following lysis in NP-40 lysis buffer. All samples were eluted from beads with 500 μg/ml 3×Flag peptide (Sigma). Samples were recombined in deubiquitination buffer (20 mM HEPES, 20 mM NaCl, 100 μg/ml BSA, 500 μM EDTA, 1 mM DTT, pH=8.3) and incubated for the indicated times at room temperature. Ubiquitin levels were assessed by immunoblot with HA antibodies.
# p21 = p21 and p53 expression in U2-OS cells; type: cell-based, human; conditions: etoposide treatment
# Description: U2-OS, HOS, SJSA, SAOS, or MG-63 cells were grown to 10-25% confluence and transfected with the plasmids indicated in combination with the marker plasmid pMACS using FuGENE 6 (Sigma).
# Transfected cells were sorted with MACS-select H-2K^k microbeads (Miltenyi Biotec). RNA was extracted from cultured or sorted transfected cells with Qiagen RNeasy Mini kits. Protein was extracted from sorted or cultured cells via lysis in NP-40 buffer (1% NP-40, 120 mM NaCl, 50 mM Tris, pH=7.4, 1 mM EDTA) supplemented with protease inhibitor cocktail I and phosphatase inhibitor cocktails 1 and 2 (Calbiochem). Lysates were clarified by centrifugation at 15,000×G for 10 minutes prior to analysis. Protein content was normalized by BCA protein assay (Thermo Scientific). For dual shRNA/siRNA experiments, cells were transfected with DNA expression vectors via Fugene and subsequently transfected with control siRNA (sense-5′-[…]-3′ (SEQ ID NO:20)) or siRNA targeting p21 (5′-[…]-3′ (SEQ ID NO:21)) via nucleofection with program X-001 in nucleofection solution V (Lonza). DT-40 cells were transfected by nucleofection with program B-023 in nucleofection solution T (Lonza).
# Rat monoclonal antibodies were raised against the C-terminal 100 amino-acids of human USP1 or WDR48 to produce the monoclonal USP1 antibody 5E10 and WDR48 antibody 9F10. […]
SMILES,decrease in ID2 ubiquitination by USP1 (USP1),p21 induction (p21)
CCN1C(=O)C=CC1=O [N-ethylmaleimide],sensitive,
COc1cc([C@@H]2c3cc4c(cc3[C@@H](O[C@@H]3O[C@@H]5CO[C@@H](C)O[C@H]5[C@H](O)[C@H]3O)[C@H]3COC(=O)[C@H]23)OCO4)cc(OC)c1O [etoposide],,induced
